The target of one experiment is Mu-type opioid receptor (Rattus norvegicus, UniProt P33535). In words: Binding affinity against Opioid receptor mu 1 from rat brain membranes using [3H]DAMGO.
The target in experiment [1] is Delta-type opioid receptor (Rattus norvegicus, UniProt P33533). Kind of experiment: Binding affinity against Opioid receptor delta 1 from rat brain membranes using [3H]DADLE.
In experiment [2] the target is Kappa-type opioid receptor (Cavia porcellus, UniProt P41144). In words: Binding affinity against Opioid receptor kappa 1 from guinea pig brain membranes using [3H]U-69593.
Kappa-type opioid receptor, sequence (P41144 whole entry): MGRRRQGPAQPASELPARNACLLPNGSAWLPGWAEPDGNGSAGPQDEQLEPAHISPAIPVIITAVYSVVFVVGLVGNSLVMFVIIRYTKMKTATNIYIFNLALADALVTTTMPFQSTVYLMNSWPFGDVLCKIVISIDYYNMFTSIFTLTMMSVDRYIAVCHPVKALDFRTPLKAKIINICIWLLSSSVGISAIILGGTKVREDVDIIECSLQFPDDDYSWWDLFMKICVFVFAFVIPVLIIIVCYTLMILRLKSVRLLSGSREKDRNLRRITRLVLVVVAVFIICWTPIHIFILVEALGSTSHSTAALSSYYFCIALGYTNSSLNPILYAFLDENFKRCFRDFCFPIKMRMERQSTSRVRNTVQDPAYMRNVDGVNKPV

Experimental findings from ChEMBL document CHEMBL1142710, “3D-QSAR comparative molecular field analysis on opioid receptor antagonists: pooling data from different studies” (J Med Chem, 2005) are described below.

A word on the Ki: it is the equilibrium dissociation constant of an inhibitor or competing ligand from its target.

Mu-type opioid receptor, sequence (P33535 whole entry): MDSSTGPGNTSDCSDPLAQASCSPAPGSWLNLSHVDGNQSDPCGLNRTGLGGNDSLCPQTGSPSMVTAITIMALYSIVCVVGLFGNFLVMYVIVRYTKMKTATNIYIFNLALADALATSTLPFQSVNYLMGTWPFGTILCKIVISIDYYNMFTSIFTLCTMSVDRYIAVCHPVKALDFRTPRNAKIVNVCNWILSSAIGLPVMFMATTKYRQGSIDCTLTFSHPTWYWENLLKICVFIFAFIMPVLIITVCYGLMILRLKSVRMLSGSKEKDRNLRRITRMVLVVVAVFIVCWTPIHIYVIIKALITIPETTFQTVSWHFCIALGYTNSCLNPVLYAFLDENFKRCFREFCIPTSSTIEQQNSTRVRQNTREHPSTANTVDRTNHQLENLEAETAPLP
Delta-type opioid receptor, sequence (P33533 whole entry): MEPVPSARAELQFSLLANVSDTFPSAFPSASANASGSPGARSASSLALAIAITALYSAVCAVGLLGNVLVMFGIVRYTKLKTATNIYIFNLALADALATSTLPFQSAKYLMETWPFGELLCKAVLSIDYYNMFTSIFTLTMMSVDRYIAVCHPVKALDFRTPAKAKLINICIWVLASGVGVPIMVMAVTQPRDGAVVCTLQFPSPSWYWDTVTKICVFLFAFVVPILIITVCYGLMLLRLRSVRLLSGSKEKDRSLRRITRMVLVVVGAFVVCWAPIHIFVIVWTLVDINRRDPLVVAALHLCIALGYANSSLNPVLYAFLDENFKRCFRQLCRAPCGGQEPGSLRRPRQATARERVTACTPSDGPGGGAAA

As for `C=C(C)CN1CCC23c4c5ccc(O)c4O[C@H]2C(=O)C2(CCc4ccccc42)C[C@@]3(O)C1C5` (some centres not stated), the Ki was 2000 nM at Mu-type opioid receptor, 40.7 nM in experiment [1] and 1000 nM in experiment [2].
On to `Oc1ccc2c3c1O[C@H]1c4ncc(-c5ccccc5)cc4C[C@@]4(O)C(C2)N(CC2CC2)CCC314` (some centres not stated), for which the values for the Ki (at Mu-type opioid receptor; in experiment [1]; in experiment [2]) were 13.5 nM, 0.871 nM and 17.8 nM, respectively.
The matching figures for `CN1CCC23c4c5ccc(O)c4O[C@H]2c2ncc(-c4ccc(Br)cc4)cc2C[C@@]3(O)C1C5` (some centres not stated): 195 nM, 3.98 nM and 437 nM.
With `Oc1ccc2c3c1O[C@H]1c4nccc(-c5ccccc5)c4C[C@@]4(O)C(C2)N(CC2CC2)CCC314` (some centres not stated), the Ki was 191 nM at Mu-type opioid receptor, 72.4 nM in experiment [1] and 263 nM in experiment [2].
As for `CN1CCC23c4c5ccc(O)c4O[C@H]2c2ncc(-c4ccc(Cl)cc4)cc2C[C@@]3(O)C1C5` (some centres not stated), the Ki at Mu-type opioid receptor is 229 nM; in experiment [1] it was 3.89 nM; in experiment [2] it was 468 nM.
As for `C=C(C)CN1CCC23c4c5ccc(O)c4O[C@H]2C(=O)/C(=C\c2ccccc2)C[C@@]3(O)C1C5` (some centres not stated), the figures for the Ki (at Mu-type opioid receptor; in experiment [1]; in experiment [2]) were 4470 nM, 209 nM and 4470 nM, respectively.
With `Oc1ccc2c3c1O[C@H]1c4ncc(-c5ccc(Cl)cc5)cc4C[C@@]4(O)C(C2)N(CC2CC2)CCC314` (some centres not stated), the figures for the Ki (on Mu-type opioid receptor; in experiment [1]; in experiment [2]) were 51.3 nM, 2.19 nM and 20 nM, respectively.
For `Oc1ccc2c3c1O[C@H]1c4ncncc4C[C@@]4(O)C(C2)N(CC2CC2)CCC314` (some centres not stated), the Ki on Mu-type opioid receptor is 4.17 nM; in experiment [1], 3.47 nM; in experiment [2] it was 6.31 nM.
Consider `Oc1ccc2c3c1O[C@H]1c4ncccc4C[C@@]4(O)C(C2)N(CC2CC2)CCC314` (some centres not stated), for which the Ki is 1.51 nM at Mu-type opioid receptor, 0.776 nM in experiment [1] and 8.71 nM in experiment [2].
The matching figures for `C=C(C)CN1CCC23c4c5ccc(O)c4O[C@H]2c2[nH]ncc2C[C@@]3(O)C1C5` (some centres not stated): 141 nM, 39.8 nM and 38 nM.
Turning to `C=C(C)CN1CCC23c4c5ccc(O)c4O[C@H]2c2oc4ccccc4c2C[C@@]3(O)C1C5` (some centres not stated), the values for the Ki (at Mu-type opioid receptor; in experiment [1]; in experiment [2]) were 1290 nM, 8.13 nM and 575 nM, respectively.
As to `Oc1ccc2c3c1O[C@H]1c4nc(-c5ccccc5)ncc4C[C@@]4(O)C(C2)N(CC2CC2)CCC314` (some centres not stated), the Ki on Mu-type opioid receptor was 21.9 nM; in experiment [1], 15.8 nM; in experiment [2], 11 nM.
The matching figures for `Cc1ncc2c(n1)[C@@H]1Oc3c(O)ccc4c3C13CCN(CC1CC1)C(C4)[C@]3(O)C2` (some centres not stated): 6.03 nM, 22.9 nM and 25.1 nM.
`Cc1cc(-c2ccccc2)c2c(n1)[C@@H]1Oc3c(O)ccc4c3C13CCN(CC1CC1)C(C4)[C@]3(O)C2` (some centres not stated): the Ki is 155 nM on Mu-type opioid receptor, 126 nM in experiment [1] and 676 nM in experiment [2].
The matching figures for `C=CCN1CCC23c4c5ccc(O)c4O[C@H]2c2ncc(-c4ccc(Cl)cc4)cc2C[C@@]3(O)C1C5` (some centres not stated): 468 nM, 8.13 nM and 75.9 nM.
On to `Oc1ccc2c3c1O[C@H]1c4nc(-c5ccccc5)ccc4C[C@@]4(O)C(C2)N(CC2CC2)CCC314` (some centres not stated), for which the Ki at Mu-type opioid receptor is 11 nM; in experiment [1], 1.78 nM; in experiment [2], 18.2 nM.
On to `COc1ccc2c(c1O)[C@]13CCN(CC4CC4)C(C2)[C@]1(O)CC1c2ccccc2NC1C3` (some centres not stated), for which the figures for the Ki (on Mu-type opioid receptor; in experiment [1]; in experiment [2]) were 1860 nM, 21.9 nM and 3160 nM, respectively.
`Cc1nc(-c2ccccc2)c2c(n1)[C@@H]1Oc3c(O)ccc4c3C13CCN(CC1CC1)C(C4)[C@]3(O)C2` (some centres not stated): the values for the Ki (at Mu-type opioid receptor; in experiment [1]; in experiment [2]) were 251 nM, 324 nM and 562 nM, respectively.
For the compound `CN1CCC23c4c5ccc(O)c4O[C@H]2c2ncc(-c4ccccc4)cc2C[C@@]3(O)C1C5` (some centres not stated), the Ki at Mu-type opioid receptor is 25.7 nM; in experiment [1], 2.88 nM; in experiment [2], 363 nM.
